Here are results for two compounds from patent US9187428B2, “Substituted dicyanopyridines and use thereof” (Bayer Intellectual Property GmbH, priority 2010, dated 2015).

The nature of data set [1]: Determination of the solubility. The class given is physicochemical. As to conditions: PEG 400/water solution (30:70 v/v), aqueous with cosolvent or surfactant or cyclodextrin, kinetic from dmso stock, PEG 400/water (30:70 v/v), 20° C., read-out: Solubility [mg/liter] PEG/water solution (30:70 v/v). As to the method:
B-8. Determination of the Solubility
• PBS buffer pH 6.5: 90.00 g of NaCl p.a. (for example from Merck, Art. No. 1.06404.1000), 13.61 g of KH2PO4 p.a. (for example from Merck, Art. No. 1.04873.1000) and 83.35 g of 1 N aqueous sodium hydroxide solution (for example from Bernd Kraft GmbH, Art. No. 01030.4000) are weighed into a 1 liter measuring flask, the flask is filled with distilled water to 1 liter and the mixture is stirred for 1 hour. Using 1 N hydrochloric acid (for example from Merck, Art. No. 1.09057.1000) the pH is then adjusted to 6.5. • PEG/water solution (30:70 v/v): 30 ml of polyethylene glycol 400 (for example from Merck, Art. No. 8.17003.1000) and 70 ml of distilled water are homogenized in a 100 ml measuring flask. • PEG/PBS buffer pH 6.5 (80:20 v/v): 80 ml of polyethylene glycol 400 (for example from Merck, Art. No. 8.17003.1000) and 20 ml of PBS buffer pH 6.5 are homogenized in a 100 ml measuring flask. • Dimethyl sulfoxide (for example from Baker, Art. No. 7157.2500) • Distilled water. Preparation of the Starting Solution (Original Solution):
At least 4 mg of the test substance are weighed accurately into a wide-necked 10 mm screw V vial (from Glastechnik Gräfenroda GmbH, Art. No. 8004-WM-H/V15μ) with fitting screw cap and septum, in a pipetting robot DMSO is added to a concentration of 50 mg/ml and the mixture is shaken for 10 minutes.
Preparation of the Calibration Solutions:
Preparation of the Starting Solution for Calibration Solutions (Stock Solution):
With the aid of a pipetting robot, 10 μl of the original solution are transferred into a microtiter plate and made up with DMSO to a concentration of 600 μg/ml. The sample is shaken until everything has gone into solution.
Calibration Solution 1 (20 μg/ml):
1000 μl of DMSO are added to 34.4 μl of the stock solution, and the mixture is homogenized.
Calibration Solution 2 (2.5 μg/ml):
700 μl of DMSO are added to 100 μl of calibration solution 1, and the mixture is homogenized.
Preparation of the Sample Solutions:
Sample Solution for Solubilities of Up to 5 g/liter in PBS Buffer pH 6.5:
10 μl of the original solution are transferred into a microtiter plate, and 1000 μl of PBS buffer pH 6.5 are added.
Sample Solution for Solubilities of Up to 5 g/liter in PEG/Water (30:70):
10 μl of the original solution are transferred into a microtiter plate, and 1000 μl of PEG/water (30:70) are added.
Sample Solution for Solubilities of Up to 5 g/liter in PEG/PBS Buffer pH 6.5 (80:20):
10 μl of the original solution are transferred into a microtiter plate, and 1000 μl of PEG/PBS buffer pH 6.5 (80:20) are added.
The sample solutions prepared in this manner are shaken at 1400 rpm in a temperature-adjustable shaker (for example Eppendorf Thermomixer comfort Art. No. 5355 000.011 with interchangeable block Art. No. 5362.000.019) at 20° C. for 24 hours. In each case 180 μl are taken from these solutions and transferred into Beckman Polyallomer Centrifuge Tubes (Art. No. 343621). These solutions are centrifuged at about 223 000×g for one hour (for example Beckman Optima L-90K Ultracentrifuge with Type 42.2 Ti Rotor at 42 000 rpm). From each of the sample solutions, 100 μl of the supernatant are removed and diluted 1:5 and 1:100 with DMSO. From each dilution, a sample is transferred into a vessel suitable for HPLC analysis.
The samples are analyzed by RP-HPLC. Quantification is carried out using a two-point calibration curve of the test compound in DMSO. The solubility is expressed in mg/liter. Analysis sequence: 1) calibration solution […]; 2) calibration solution […]; 3) sample solution 1:5; 4) sample solution 1:100. […]

Data set [2] concerns the target A1 receptor (Rattus norvegicus (Rat), UniProt P25099). The data set is described as follows: A1 receptor GTP shift binding assay with rat brain membranes and [3H]DPCPX. As to conditions: rat brain membranes, 0.4 nM [3H]DPCPX, presence and absence of 1 mM GTP. As to the method:
B-6. GTP Shift Experiment
Preparation of the Brain Membrane
The brains of male Wistar rats are removed and immediately transferred into an ice-cooled 0.32 mol/l sucrose solution. The tissue is comminuted using a glass-Teflon homogenizer and then centrifuged (1000×g for 10 minutes). The supernatant is then ultracentrifuged at 30 000 g for 30 minutes. The pellet obtained in this manner is resuspended in 10 ml of water and allowed to stand on ice for 30 minutes. After a final centrifugation step at 48 000 g for 10 min, the membranes are resuspended in 50 mmol/l Tris-HCl buffer, pH 7.4, and incubated with 2 U/ml of adenosine deaminase at 37° C. for 30 min. This is followed by a protein determination according to Bradford. The membranes are frozen in small aliquots and stored at −80° C. until required for the binding assay.
The A1 receptor GTP shift binding assay is carried out using rat brain membranes and 0.4 nM [^3H] […] 10 μg of membrane protein are incubated at 37° C. for 20 min with 0.4 nM [^3H]DPCPX and adenosine A1 agonists in various concentrations in buffer (50 mM tris-HCl, pH 7.4, 2 U/ml ADA) in the presence and absence of 1 mM guanosine triphosphate (GTP). […] The radioactivity on the filter is measured with addition of 100 μl of scintillation cocktail in a Microbeta TriLux beta counter (PerkinElmer, Massachusetts, USA). […]

In brackets after ≈: the same amount, converted by molar mass.

Chain of A1 receptor (P25099 whole entry): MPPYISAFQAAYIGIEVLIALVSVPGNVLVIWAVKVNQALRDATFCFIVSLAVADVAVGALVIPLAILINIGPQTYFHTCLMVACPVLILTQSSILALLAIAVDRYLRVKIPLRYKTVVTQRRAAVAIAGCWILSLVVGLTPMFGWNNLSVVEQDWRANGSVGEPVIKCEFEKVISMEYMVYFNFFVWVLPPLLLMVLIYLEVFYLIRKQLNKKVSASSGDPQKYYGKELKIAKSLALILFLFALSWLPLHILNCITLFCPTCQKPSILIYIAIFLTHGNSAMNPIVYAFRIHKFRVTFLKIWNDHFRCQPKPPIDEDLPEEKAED

Regarding `CC(Sc1nc(N)c(C#N)c(-c2ccc(OCCO)cc2)c1C#N)c1cccc(C(N)=O)c1` (single isomer, unassigned) [Example 61, 3-[1-({6-Amino-3,5-dicyano-4-[4-(2-hydroxyethoxy)phenyl]pyridin-2-yl}sulfanyl)ethyl]benzenecarboxamide], the solubility at 24 h in data set [1] was 90 mg/L (≈ 196 µM). Also, in data set [2], the “GTP Shift” value turned out to be 1.5.

`COCCOc1ccc(-c2c(C#N)c(N)nc(SC(C)c3cccc(C(N)=O)c3)c2C#N)cc1` (single isomer, unassigned) [Example 64, 3-[1-({6-Amino-3,5-dicyano-4-[4-(2-methoxyethoxy)phenyl]pyridin-2-yl}sulfanyl)ethyl]benzenecarboxamide]: in data set [1], the solubility at 24 h amounted to 260 mg/L (≈ 549 µM). In addition, the “GTP Shift” value in data set [2] was found to be 2.8.
